US8492344B2, “PDK inhibitor compounds and methods of use thereof” (University of Florida Research Foundation, priority 2008, dated 2013)

Tests used:
Solubility in DMSO = assay type: physicochemical
PDH activity = PDH activity in human fibroblast cultures (14CO2 from [1-14C]-pyruvate); assay type: cell-based; settings: for PDH activity stimulation at 0.25 mM: tested at 0.25 mM, data not shown; for Potency relative to DCA in improving PDH activity at the lowest concentration tested: dose-response 0.01 to 5 mM, lowest concentration printed as 0.01 μM; for Potency relative to DCA in increasing PDH activity / Change of PDH activity at 5 mM: dose-response; for Potency relative to DCA in increasing PDH activity: 0.01 mM; for PDH activity vs DMSO control (result in words): initial studies, maximum feasible dose (0.25 to 2 mM), 24 h, 3 cell lines, p≦0.05
Procedure: PDH complex activity was measured by the rate of ^14C formation from [1-^14C]-labeled pyruvate, as described in Mitochondrion 6:126-135 (2006) or Mitochondrion. 7: 253-259 (2007). Fibroblasts harvested by trypsinization from a confluent T-75 flask were washed in phosphate-buffered saline (PBS) and resuspended in PBS containing the serine protease inhibitors leupeptin and phenylmethylsulfonyl fluoride (PMSF). Cells were incubated for 15 min at 37° C. with DCA. Reactions were halted by addition of a stop solution (25 mM NaF, 25 mM EDTA, 4 mM dithiothreitol, 40% ethanol), and cells were lysed by repeated freezing and thawing. Sixteen aliquots of each fibroblast sample were assayed in test tubes for enzyme activity. Four samples that contained only lysate and water and four samples that also contained thiamine pyrophosphate and coenzyme A were assayed at reaction times of 5 and 10 min. A ^14C-labeled pyruvate aliquot of known specific activity was added to the cell lysates and the test tubes were immediately closed with a rubber stopper. The stopper was outfitted with a center well (Kimble-Kontes, Vineland, N.J.) that contained 1 cm^2 chromatography paper soaked with 100 μl hyamine hydroxide. Reactions were halted by adding stopping buffer. The ^14CO2 evolved due to PDH-mediated catalysis and trapped in the paper was determined by liquid scintillation. PDH specific activity was expressed as nmol ^14CO2 produced/min/mg protein. Excess cell lysate was used to determine total protein.
The compounds (predicted to interact with PDK2) were tested in human fibroblast cultures from three healthy subjects for their effect on PDH activity. DCA and dimethyl sulfoxide (DMSO) were used as positive and vehicle controls, respectively. Drugs were dissolved in DMSO and were used at maximum feasible dose in initial studies (0.25 to 2 mM). For dose-response experiments, concentrations used were: 0.01, 0.05, 0.1, 0.5, 1, and 5 mM. DCA was used as positive control. Cells were exposed to media with DCA, NCI compounds or DMSO vehicle for the final 24 h of culture.
Primary cultures of fibroblasts were grown at 37° C. in a humidified 5% CO2/95% air atmosphere in DMEM supplemented with 20% (v/v) FBS, 100 U/mL penicillin, 100 μg/mL streptomycin, and 6 mM L-glutamine.
Cell lysates treated with DCA or NCI compounds were incubated in a reaction buffer that contained [1-^14C]-pyruvate. PDH activity was measured by quantitation of liberated ^14CO2. (Han et al., 2007. Down-regulation of rat pyruvate dehydrogensae E1a gene by self-complementary adeno-associated virus-mediated small interfering RNA delivery. Mitochondrion. 7: 253-259). Each sample was run in triplicate, with appropriate blanks.

Row | Compound | Solubility in DMSO (Solubility in DMSO) | PDH activity stimulation at 0.25 mM (PDH activity) | Potency relative to DCA in improving PDH activity at the lowest concentration tested (PDH activity) | Potency relative to DCA in increasing PDH activity (PDH activity) | Change of PDH activity at 5 mM (PDH activity) | PDH activity vs DMSO control (result in words) (PDH activity)
1 | O=C(O)CS(=O)(=O)O [Compound 5, 2-sulfoacetic acid] | poorly soluble in DMSO | none of these compounds stimulated PDH activity |  |  |  | 
2 | O=C(O)Cc1nnn[nH]1 [Compound 6, 2-(2H-tetrazol-5-yl)acetic acid] | poorly soluble in DMSO | none of these compounds stimulated PDH activity |  |  |  | 
3 | O=C(O)C(=O)C(=O)O [Compound 7, 2-oxopropanedioic acid] | poorly soluble in DMSO | none of these compounds stimulated PDH activity |  |  |  | 
4 | CC(=CC(=O)O)C(=O)O [Compound 10, 2-methylbut-2-enedioic acid] |  |  | may be more potent than DCA | more potent than DCA | significant decrease in PDH activity | significantly increased PDH activity
5 | CC(O)C(O)C(=O)O (stereo not shown) [Compound 12, 2,3-dihydroxybutanoic acid] |  |  |  |  |  | significantly increased PDH activity
6 | O=C(O)Cc1cnc[nH]1 [Compound 14, 2-(3H-imidazol-4-yl)acetic acid] |  |  | may be more potent than DCA | more potent than DCA | increased PDH activity | significantly increased PDH activity
7 | C/C(Cl)=C\C(=O)O [Compound 18, (E)-3-chlorobut-2-enoic acid] |  |  |  |  | significant decrease in PDH activity | significantly increased PDH activity
8 | C/C=C\C(=O)O [Compound 24, (Z)-but-2-enoic acid] |  |  |  |  |  | significantly increased PDH activity
9 | O=CNCC(=O)O [Compound 25, 2-formamidoacetic acid] |  |  |  |  |  | significantly increased PDH activity
